Experimental data: patent publication US12600701B2, “N-acylhydrazonic compounds, use in the treatment of amyloid and non-amyloid degenerative aggregopathies, and pharmaceutical composition” (FACULDADES CATÓLICAS, priority 2020, dated 2026)

Tests used:
[1] = Experimental octanol-water partition coefficient (log P); format: physicochemical; conditions: octanol / Tris buffer 10^−2 mol L^−1 pH 7.4, 37° C., triplicate
Protocol: Tris buffer 10^−2 mol L^−1 pH 7.4 was used as the aqueous phase. Both phases were prepared separately, and contained the hydrazone of interest at low concentrations (5×10^−5 mol L^−1). An ultraviolet/visible molecular absorption spectrum was acquired for each of the phases before mixing. The mixture was stirred at 37° C., protected from light. At the end of the incubation, the mixture was centrifuged for 10 minutes at 3000 rpm, and the layers were separated using pipettes. The concentrations in each phase were measured at the wavelength of greatest absorption of each hydrazone in the respective solvent, through calibration curves. Each compound was analyzed in triplicate and P was calculated as the average concentration ratio Co/Ca where Co is the concentration in the organic phase and Ca in the aqueous phase.
Experimental results were obtained using buffer with physiological pH, and the mixing and separation steps were performed at average human body temperature. This gives the experiment greater biological relevance compared to computational calculations. Even so, the values determined are in agreement with those calculated.

[2] = Stability in aqueous solution containing 1% DMSO (UV-Vis absorption); format: physicochemical; conditions: 1% DMSO/water, 5×10^−5 mol L^−1, 17° C., over 4 days
Protocol: Stability in aqueous solution containing 1% DMSO: Compounds were prepared at low concentrations (5×10^−5 mol L^−1) in a solution containing 1% DMSO in ultra-pure water. Absorption spectra were obtained between 200 and 800 nm in a molecular absorption spectrophotometer at regular intervals over 12 hours. A final measurement was performed after four days. The room temperature was maintained at 17° C. throughout the experiment.

[3] = Affinity constant for copper(II), Method of Continuous Variations (Job plot); format: binding
Protocol: Affinity constant for copper(II): The affinity constant of compound (IV) for copper(II) was determined using the Method of Continuous Variations, which consists of preparing mixtures of different molar fractions of ligand and metal, followed by measuring their UV-Vis absorbance.
From this information it is possible to calculate the complex formation constant which, for the compound of formula (IV), has a value of 5.66±0.08 at 25° C.

[4] = system: SynT-Sph1 aggregation in H4 cells; assay: Cellular model of α-synuclein (SynT-Sph1) aggregation in H4 cells; format: cell-based, human
Protocol: The isoniazid-derived hydrazone of formula (IV) was evaluated in greater detail in a cellular model of α-synuclein aggregation in H4 cells. This model consists of the co-transfection of an α-synuclein construct containing the first 83 amino acids of the EGFP protein linked to its C-terminal portion (SynT) with the synphilin-1 protein (Sph1), resulting in positive inclusions for α-Syn which can be observed by fluorescence microscopy after immunostaining.

[5] = rats, intraperitoneal injection, HPLC detection in brain; earlier work of the group; cited from earlier work
[6] = system: mice with intracerebroventricular infusion of Aβ oligomers; conditions: earlier work of the group, cited from earlier work
[7] = system: healthy rats; conditions: earlier work of the group; cited from earlier work

| logP [1] | SMILES | decrease in the intensity of the hydrazonic band [2] | complex formation constant with copper(II) ([3]; ML-type complex (1:1), 25° C.) | formation constant compared with clioquinol ([3]; clioquinol under similar conditions) | levels of α-Syn expression [4] | morphology of the aggregates ([4]; after treatment) | crossing of the blood-brain barrier [5] | defensive responses related to fear and anxiety ([6]; healthy mice) | short- and long-term memory damage induced by Aβ oligomers ([6]; mice, intracerebroventricular infusion of Aβ oligomers) | acute toxicity [7] |
| --- | --- | --- | --- | --- | --- | --- | --- | --- | --- | --- |
| 0.67 ± 0.03 | Cn1ccnc1/C=N/NC(=O)c1ccncc1 [(IV), 1-methyl-1H-imidazole-2-carboxaldehyde isonicotinoyl hydrazone] | less than 2% | 5.66±0.08 | approximately one thousand times lower | does not change | less compact after treatment |  |  |  |  |
| 1.49 ± 0.13 | Cn1ccnc1/C=N/NC(=O)c1ccccc1 [(V), 1-methyl-1H-imidazole-2-carboxaldehyde benzoyl hydrazone] |  |  |  |  |  |  |  |  |  |
|  | O=C(NN=Cc1ccc2cccc(O)c2n1)c1ccncc1 [INHHQ, 8-hydroxyquinoline-2-carboxaldehyde isonicotinoyl hydrazone] | approximately 12% |  |  |  |  | capable of crossing the blood-brain barrier | does not alter | capable of preventing | non-toxic |
